Data: US7098007B2, “Cloning and functional assays of Xenopus ATR” (California Institute of Technology, priority 2001, dated 2006)
Entries after “also recorded” stand apart in the source; their conditions may differ.

Legend:
ATM = ATM (Homo sapiens, UniProt Q13315); conditions: cited from earlier work
ATR = ATR (Homo sapiens, UniProt Q13535); conditions: cited from earlier work
Xchk1 = assay: Phosphorylation of Xchk1 in Xenopus egg extracts; type: biochemical
Protocol: To address this question, we first measured phosphorylation of Xchk1 in egg extracts undergoing a checkpoint delay in response to a block to DNA replication. […] Briefly, ^35S-labeled wildtype or mutant Xchk1 (T314A, S344A, T314A+S344A, S356A, S365A, S356A+S365A, 4AQ) protein was incubated with egg extracts in the presence or absence of aphidicolin. ^35S labeled proteins were isolated and analyzed by gel electrophoresis for a phosphorylation-dependent shift in mobility.
Using the S344-p antibodies, we examined in more detail the phosphorylation of Xchk1 expressed in egg extracts. […] Following the incubation, the recombinant proteins were reisolated with glutathione agarose and detected by immunoblot with anti-GST antibodies and anti-S344-p antibodies.
Following 90 minute incubation, the preparation was diluted in 400 μL of dilution buffer (10 mM HEPES at pH 7.5, 150 mM NaCl, 20 mM β-glycerolphosphate, 2.5 mM EGTA, and 0.1% CHAPS). Recombinant Xchk1 proteins were isolated with glutathione agarose, washed, eluted, subjected to SDS-PAGE, and immunoblotted with either anti-GST antibodies (Santa Cruz Biotechnology) or anti-S344-p antibodies.

Xatr [1] = target: T1, Xatr (Xenopus laevis, UniProt Q9DE14); assay: Xatr kinase assay: phosphorylation of model substrate PHAS-I by anti-Xatr immunoprecipitates; type: biochemical; set-up: Xatr was immunoprecipitated from Xenopus egg extracts using an anti-Xatr antibody; from tissue; host or cells: Xenopus egg extracts (immunoprecipitate with anti-peptide 1617-1630 antibody); conditions: 0.04, 0.2, 1 or 5 mM caffeine; anti-Xatr immunoprecipitates from egg extracts; autoradiography
Protocol: Given the conservation of the PIK-related kinase domain among ATR homologs, we characterized the kinase activity of Xatr. Xatr was immunoprecipitated from Xenopus egg extracts using an anti-Xatr antibody (as described in Example 1).
To further assess the relationship between Xatr and other PIK-related kinases, we next assessed the effects of caffeine on the kinase activity of Xatr. […] Briefly, kinase assays were performed by incubating anti-Xatr immunoprecipitates (lanes 1–5) or control immunoprecipitates (lanes 6–10) with the model substrate PHAS-I, in the presence of 0 (lanes 1 and 6), 0.04 mM (lanes 5 and 10), 0.2 mM (lanes 4 and 9), 1 mM (lanes 3 and 8) or 5 mM (lanes 2 and 7) caffeine. Proteins were subjected to SDS-PAGE and visualized by silver staining (bottom panel). Phosphorylation of PHAS-I was detected by autoradiography (middle panel).
METHODS: Polyclonal antibodies generated against an Xatr peptide ([…], SEQ ID NO: 11), as shown in Example 1, were used to immunoprecipitate Xatr. Immunoprecipitation and kinase assays were performed using standard methods, and as previously shown (Guo and Dunphy (2000) Mol. Biol Cell 11: 1535–1546).

TOR = TOR (Homo sapiens, UniProt P42345); conditions: cited from earlier work
Xatr [2] = target: T1, Xatr; assay: Binding of Xatr to single-stranded and double-stranded DNA cellulose in egg cytosol; set-up: we examined the association of Xatr with both single and double-stranded DNA in Xenopus egg extracts; from tissue; host or cells: Xenopus interphase egg cytosol; conditions: 50 μL cytosol, with or without APH
Protocol: In order to functionally characterize Xatr, we examined the association of Xatr with both single and double-stranded DNA in Xenopus egg extracts, under a variety of conditions. […] Briefly, control cellulose, single-stranded DNA cellulose, or double-stranded DNA cellulose were incubated with 50 μL of cytosol in the presence or absence of APH or PCL. Washed cellulose beads were boiled in gel loading buffer, and half of this was subjected to immunoblot analysis using an Xatr polyclonal antibody prepared in Example 1.
Preparation of DNA cellulose: M13 DNA (single-stranded DNA) was prepared according to the manufacturers instructions (Amersham). pBS plasmids (pBluescript—double stranded DNA) were prepared by a standard alkaline lysis procedure. 1 mg of M13 DNA or pBluescript DNA in 1 mL of TE buffer (10 mM Tris-HCL, 1 mM EDTA at pH 8.0) was incubated with 0.3 grams of cellulose for 5 minutes at 23° C. Following incubation, the preparation was lyophilized for 18 hours. The resulting lyophilized powder was resuspended in 20 volumes of TE, incubated at 4° C. for 24 hours, washed with TE, and frozen at −70° C. until use. Naked control cellulose was prepared under the same conditions, however, the addition of either single or double stranded DNA was omitted.
Binding of Xatr to DNA cellulose: 25–100 μL of DNA cellose was incubated with 50–500 μL of interphase egg cytosol for 40 minutes at 23° C. […]

T1 sequence (Q9DE14 whole entry Y191C/P249S/H2082P/D2362G, the tested form may be a part): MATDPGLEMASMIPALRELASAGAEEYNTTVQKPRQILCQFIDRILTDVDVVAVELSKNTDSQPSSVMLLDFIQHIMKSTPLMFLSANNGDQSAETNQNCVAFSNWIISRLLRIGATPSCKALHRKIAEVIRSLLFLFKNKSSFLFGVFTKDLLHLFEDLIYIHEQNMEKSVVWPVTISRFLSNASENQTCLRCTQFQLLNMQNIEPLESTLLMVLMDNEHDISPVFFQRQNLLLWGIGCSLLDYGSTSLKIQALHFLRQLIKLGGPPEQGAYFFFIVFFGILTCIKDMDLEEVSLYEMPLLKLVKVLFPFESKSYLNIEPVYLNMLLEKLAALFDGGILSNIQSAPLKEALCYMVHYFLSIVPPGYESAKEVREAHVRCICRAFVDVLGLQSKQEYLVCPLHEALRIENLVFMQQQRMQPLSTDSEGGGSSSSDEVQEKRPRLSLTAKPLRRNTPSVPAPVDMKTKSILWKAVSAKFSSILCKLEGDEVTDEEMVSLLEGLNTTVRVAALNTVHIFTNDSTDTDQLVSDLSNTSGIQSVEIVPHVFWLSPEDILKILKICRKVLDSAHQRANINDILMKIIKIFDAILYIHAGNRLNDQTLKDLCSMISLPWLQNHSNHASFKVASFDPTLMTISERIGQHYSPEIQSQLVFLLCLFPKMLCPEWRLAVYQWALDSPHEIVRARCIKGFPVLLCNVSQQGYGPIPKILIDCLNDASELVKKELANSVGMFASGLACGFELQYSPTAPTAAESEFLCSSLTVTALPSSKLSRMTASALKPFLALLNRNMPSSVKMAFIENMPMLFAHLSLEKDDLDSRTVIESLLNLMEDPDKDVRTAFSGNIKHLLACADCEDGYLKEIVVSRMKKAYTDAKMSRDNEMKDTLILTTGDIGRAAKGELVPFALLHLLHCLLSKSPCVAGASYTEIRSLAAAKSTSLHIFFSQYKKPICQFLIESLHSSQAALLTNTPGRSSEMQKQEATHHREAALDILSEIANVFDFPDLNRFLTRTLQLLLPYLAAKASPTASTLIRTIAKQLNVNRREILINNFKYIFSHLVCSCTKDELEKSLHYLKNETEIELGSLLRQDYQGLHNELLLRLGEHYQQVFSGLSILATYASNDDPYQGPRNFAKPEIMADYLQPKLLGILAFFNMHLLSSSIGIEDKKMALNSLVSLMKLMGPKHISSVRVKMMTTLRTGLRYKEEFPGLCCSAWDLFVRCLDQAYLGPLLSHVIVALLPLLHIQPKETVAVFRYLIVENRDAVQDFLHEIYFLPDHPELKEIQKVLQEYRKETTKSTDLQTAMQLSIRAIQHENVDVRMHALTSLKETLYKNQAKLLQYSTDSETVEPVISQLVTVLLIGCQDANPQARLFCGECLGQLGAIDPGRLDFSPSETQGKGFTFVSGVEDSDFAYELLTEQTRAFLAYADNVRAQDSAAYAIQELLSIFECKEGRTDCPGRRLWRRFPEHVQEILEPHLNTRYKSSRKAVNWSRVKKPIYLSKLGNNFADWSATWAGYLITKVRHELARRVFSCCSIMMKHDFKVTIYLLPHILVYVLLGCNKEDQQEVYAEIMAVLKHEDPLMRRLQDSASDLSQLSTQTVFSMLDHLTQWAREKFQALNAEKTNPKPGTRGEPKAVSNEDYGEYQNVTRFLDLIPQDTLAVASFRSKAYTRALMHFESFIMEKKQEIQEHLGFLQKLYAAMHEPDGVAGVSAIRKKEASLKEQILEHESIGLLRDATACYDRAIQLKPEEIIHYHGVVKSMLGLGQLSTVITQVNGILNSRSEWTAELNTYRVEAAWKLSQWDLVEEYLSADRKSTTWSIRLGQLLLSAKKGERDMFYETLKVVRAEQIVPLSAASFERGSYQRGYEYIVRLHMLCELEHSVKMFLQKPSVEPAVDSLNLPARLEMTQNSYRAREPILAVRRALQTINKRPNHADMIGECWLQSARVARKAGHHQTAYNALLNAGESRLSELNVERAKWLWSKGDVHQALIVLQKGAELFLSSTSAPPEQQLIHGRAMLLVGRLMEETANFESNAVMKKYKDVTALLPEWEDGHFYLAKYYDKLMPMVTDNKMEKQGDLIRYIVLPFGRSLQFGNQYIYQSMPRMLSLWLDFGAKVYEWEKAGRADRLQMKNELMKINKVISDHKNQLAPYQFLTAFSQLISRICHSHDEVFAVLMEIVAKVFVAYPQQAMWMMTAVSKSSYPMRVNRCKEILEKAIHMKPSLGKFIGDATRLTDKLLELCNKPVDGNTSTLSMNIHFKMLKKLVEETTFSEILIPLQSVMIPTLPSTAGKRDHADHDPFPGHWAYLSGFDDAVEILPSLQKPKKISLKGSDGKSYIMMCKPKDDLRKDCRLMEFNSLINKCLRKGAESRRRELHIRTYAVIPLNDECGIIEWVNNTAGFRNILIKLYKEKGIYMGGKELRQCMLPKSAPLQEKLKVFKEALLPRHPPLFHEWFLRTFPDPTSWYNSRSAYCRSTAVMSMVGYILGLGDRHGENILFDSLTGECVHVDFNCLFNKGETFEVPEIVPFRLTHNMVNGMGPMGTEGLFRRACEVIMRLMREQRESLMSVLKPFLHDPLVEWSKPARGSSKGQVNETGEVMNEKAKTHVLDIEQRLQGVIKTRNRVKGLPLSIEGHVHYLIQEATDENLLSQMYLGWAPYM

SMILES	kinase activity of ATM, sensitivity to caffeine (ATM)	kinase activity of ATR, sensitivity to caffeine (ATR)	half-maximal dose for inhibition of Xchk1 phosphorylation, compared with inhibition of Xatr kinase activity (Xchk1; egg extracts treated with aphidicolin, compared with FIG. 3D)	phosphorylation of Xchk1 in response to unreplicated DNA (Xchk1; egg extracts treated with aphidicolin, increasing concentrations of caffeine)	kinase activity of Xatr (phosphorylation of PHAS-I) (Xatr [1])	kinase activity of TOR, sensitivity to caffeine (TOR)	interaction of Xatr with DNA cellulose (Xatr [2])	phosphorylation of wildtype Xchk1 at Ser 344 (anti-S344-p immunoblot) (Xchk1; 100 μg/mL aphidicolin and sperm nuclei, 90 minutes, interphase extract)	phosphorylation of wildtype Xchk1 (phosphorylation-dependent shift in mobility) (Xchk1; 35S-labeled Xchk1 in egg extracts, presence versus absence of aphidicolin)
Cn1c(=O)c2c(ncn2C)n(C)c1=O [caffeine]	sensitive	sensitive	approximately the same half-maximal dose	inhibited	significant decrease in phosphorylation of PHAS-I; also recorded: sensitive	sensitive	–	–	–
C[C@@]1(CO)[C@H](O)CC[C@@]2(C)[C@H]1CC[C@H]1C[C@@H]3C[C@@]12CC[C@]3(O)CO [aphidicolin]	–	–	–	–	–	–	occurs in the presence or the absence	phosphorylated at position 344	phosphorylated
